In the supplement of paper PMC10307832:

Assays:
Assay in all cases: relative viability (nuclei count vs DMSO), 5 days (fraction); higher = more cells survive
Trametinib + Lapatinib = compound: CC(=O)Nc1cccc(-n2c(=O)n(C3CC3)c(=O)c3c(Nc4ccc(I)cc4F)n(C)c(=O)c(C)c32)c1 [Trametinib] + CS(=O)(=O)CCNCc1ccc(-c2ccc3ncnc(Nc4ccc(OCc5cccc(F)c5)c(Cl)c4)c3c2)o1 [Lapatinib] (partner 2 µM)
Procedure, shortened: (§1)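 Relative viability equals treated-well nuclei counts divided by vehicle-well nuclei counts. Counts came from 4× images of lung cancer cell lines grown in 1536-well plates for 5 days after pin-tool dosing on the day after seeding. Dosing used one drug alone or a fixed anchor-drug dose plus five library-drug doses (not always all listed) in √10 steps, and values are medians of duplicate plates.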

[1] = compound: CN1C=C(C2=CC=CC=C21)/C=C\3/C4=C(C=CC=N4)NC3=O + Cc1nc(NC(=O)N2CCC[C@H]2C(N)=O)sc1-c1ccnc(C(C)(C)C(F)(F)F)c1 [Alpelisib] (partner 2 µM)
Procedure, shortened: as §1

[2] = compound: CN1C=C(C2=CC=CC=C21)/C=C\3/C4=C(C=CC=N4)NC3=O + Cc1nc(Nc2ncc(C(=O)Nc3c(C)cccc3Cl)s2)cc(N2CCN(CCO)CC2)n1 [Dasatinib] (partner 0.075 µM)
Procedure, shortened: as §1

Row | Cell Line | relative viability (Trametinib + Lapatinib; first compound 0.0025 µM) | relative viability (Trametinib + Lapatinib; first compound 0.007906 µM) | relative viability (Trametinib + Lapatinib; first compound 0.025 µM) | relative viability (Trametinib + Lapatinib; first compound 0.07906 µM) | relative viability (Trametinib + Lapatinib; first compound 0.25 µM) | relative viability ([1]; first compound 0.02 µM) | relative viability ([1]; first compound 0.06325 µM) | relative viability ([1]; first compound 0.2 µM) | relative viability ([1]; first compound 0.6325 µM) | relative viability ([1]; first compound 2 µM) | relative viability ([2]; first compound 0.02 µM) | relative viability ([2]; first compound 0.06325 µM) | relative viability ([2]; first compound 0.2 µM) | relative viability ([2]; first compound 0.6325 µM) | relative viability ([2]; first compound 2 µM)
1 | NCI-H727 | 0.606 | 0.415 | 0.291 | 0.297 | 0.216 | 0.48 | 0.533 | 0.307 | 0.466 | 0.604 | 0.332 | 0.372 | 0.365 | 0.332 | 1.12
2 | NCI-H1993 | 0.824 | 0.909 | 0.651 | 0.648 | 0.682 | 0.631 | 0.653 | 0.678 | 0.736 | 0.698 | 0.537 | 0.59 | 0.523 | 0.468 | 0.951
3 | EMC-BAC-2 | 0.866 | 0.872 | 0.711 | 0.92 | 0.626 | 0.673 | 0.452 | 0.736 | 0.768 | 0.799 | 0.356 | 0.323 | 0.32 | 0.332 | 0.407
4 | NCI-H1563 | 0.973 | 0.937 | 0.808 | 0.84 | 0.61 | 0.898 | 0.951 | 0.73 | 0.977 | 0.863 | 0.472 | 0.437 | 0.444 | 0.488 | 0.414
5 | NCI-H2087 | 1.1 | 0.665 | 0.496 | 0.254 | 0.18 | 1.16 | 1.21 | 1.17 | 1.05 | 1.22 | 0.868 | 0.843 | 0.838 | 0.824 | 0.877
6 | LXF-289 | 0.863 | 0.759 | 0.677 | 0.615 | 0.57 | 1.09 | 1.06 | 1.12 | 1.02 | 1.1 | 0.203 | 0.197 | 0.184 | 0.2 | 0.202
7 | NCI-H661 | 0.43 | 0.451 | 0.448 | 0.341 | 0.421 | 0.889 | 0.591 | 0.423 | 0.402 | 0.591 | 0.892 | 0.827 | 0.626 | 0.819 | 0.853
8 | PC-3 [JPC-3] | 0.451 | 0.425 | 0.425 | 0.404 | 0.377 | 1.02 | 0.99 | 1.03 | 1.03 | 0.989 | 1.04 | 0.888 | 1.02 | 0.866 | 1.02
9 | HCC-366 | 0.88 | 0.938 | 0.614 | 0.58 | 0.161 | 0.296 | 0.328 | 0.284 | 0.31 | 0.267 | 0.641 | 0.455 | 0.44 | 0.593 | 0.468
10 | NCI-H1651 | 0.757 | 0.74 | 0.66 | 0.531 | 0.452 | 0.916 | 0.947 | 1.06 | 0.998 | 0.921 | 0.522 | 0.534 | 0.353 | 0.464 | 0.345
11 | NCI-H1355 | 0.838 | 0.767 | 0.369 | 0.532 | 0.4 | 0.663 | 0.66 | 0.739 | 0.468 | 0.547 | 0.671 | 0.586 | 0.571 | 0.399 | 0.502
12 | LC-2-ad | 0.917 | 0.839 | 0.664 | 0.639 | 0.285 | 0.93 | 0.891 | 0.859 | 0.892 | 0.891 | 0.572 | 0.482 | 0.45 | 0.597 | 0.515
13 | NCI-H1944 | 0.76 | 0.632 | 0.588 | 0.493 | 0.396 | 0.721 | 0.789 | – | 0.833 | 0.748 | 0.214 | 0.215 | – | 0.194 | 0.217
14 | HCC-827 | 0.191 | 0.164 | 0.178 | 0.208 | 0.228 | 0.969 | 0.992 | – | 0.978 | 0.984 | 0.296 | 0.354 | – | 0.28 | 0.427
15 | COR-L23 | 1.04 | 0.923 | 0.786 | 0.788 | 0.48 | 0.764 | 0.698 | 0.718 | 0.724 | 0.589 | 0.551 | 0.449 | 0.494 | 0.51 | 0.529
16 | NCI-H3122 | 0.995 | 0.737 | 0.699 | 0.584 | 0.501 | 0.727 | 0.764 | 0.722 | 0.802 | 1 | 0.722 | 0.756 | 0.753 | 0.844 | 0.835
17 | NCI-H2170 | 0.311 | 0.258 | – | 0.261 | 0.246 | – | 0.794 | 0.757 | 0.617 | 0.649 | 0.442 | 0.581 | 0.525 | 0.468 | 0.597
18 | NCI-H1793 | 0.478 | 0.531 | 0.397 | 0.395 | 0.352 | 0.979 | 1.02 | 0.654 | 0.668 | 0.675 | 0.429 | 0.341 | 0.337 | 0.353 | 0.381
19 | BEN | 0.681 | 0.651 | – | 0.506 | 0.593 | 1.05 | 0.932 | 0.981 | 1 | 1.13 | 0.263 | 0.275 | – | 0.259 | 0.314
20 | NCI-H647 | 1.03 | 0.936 | 0.759 | 0.683 | 0.231 | 0.977 | 0.948 | 0.904 | 0.951 | 1.14 | 0.208 | 0.176 | 0.105 | 0.143 | 0.167
21 | PC-14 | 0.27 | 0.194 | 0.182 | 0.192 | 0.192 | 0.99 | 1.03 | 1.19 | 0.906 | 1.04 | 0.227 | 0.223 | 0.194 | 0.205 | 0.186
22 | HCC-78 | 0.827 | 0.533 | 0.988 | 0.299 | 0.469 | 0.289 | 0.509 | 0.304 | 0.282 | 0.287 | 0.317 | 0.578 | – | 0.34 | 0.37
23 | NCI-H1666 | 0.354 | 0.414 | 0.405 | 0.387 | 0.265 | 0.94 | 0.814 | 0.805 | 0.915 | 0.616 | 0.892 | 0.822 | 0.79 | 0.758 | 0.81
24 | COR-L 105 | 0.37 | 0.413 | 0.332 | 0.381 | 0.326 | 0.907 | 0.898 | 0.922 | 1.01 | 0.874 | 0.306 | 0.298 | 0.273 | 0.34 | 0.367
25 | LU99A | 0.866 | 0.911 | 0.719 | 0.674 | 0.267 | 0.479 | 0.487 | 0.555 | 0.5 | 0.504 | 0.67 | 0.457 | 0.437 | 0.669 | 0.612
26 | NCI-H596 | 0.918 | 0.817 | 0.807 | 0.833 | 0.412 | 0.545 | 0.413 | 0.529 | 0.49 | 0.493 | 0.481 | 0.582 | 0.469 | 0.628 | 0.48
27 | 201T | 1.06 | 0.922 | 0.93 | 0.879 | 0.928 | 0.998 | 1.04 | 1.08 | 1 | 0.913 | 0.587 | 0.533 | 0.504 | 0.531 | 0.413
28 | HCC-15 | 0.806 | 0.461 | 0.572 | 0.328 | 0.223 | 1.01 | 0.848 | 0.808 | 0.889 | 0.958 | 0.53 | 0.577 | 0.565 | 0.544 | 0.496
